How the values were obtained:
[1] = system: cortical neurons derived from human induced pluripotent stem cells (iPSCs) from Huntington's disease patients; assay: BDNF-mCherry axonal trafficking in hiPSC-derived cortical neurons in microfluidic device; format: cell-based; conditions: 1 μM daily for 7 days vs DMSO
Method: Referring to FIG. 7A, the inventors again reproduced the corticostriatal network in vitro on a microfluidic device consisting of two neuronal chambers that are connected via microchannels. Experiments are performed over a period ranging from 0 to 40 days in vitro (DIV), the first 20 days for neuronal cell generation and differentiation of hiPSCs, followed by the introduction of the cells into the microfluidic device. 3 hours after introduction, cells were infected from the pre-synaptic compartment with a lentivirus encoding BDNF-mCHerry.
The human iPSC line ND42222 (RRID:CVCL_Y844 passage 42) “109Q” was obtained from Coriell Cell Repositories. This line is heterozygous for HTT p.Gln18[109] and therefore has 109 CAG repeats in one of the two HTT alleles. Amplification of human iPSCs, generation of neuronal cells and terminal differentiation were performed according to the work published in Gribaudo S. et al. (Stem Cell Reports 12, 230-244, 2019). 109Q cells were maintained on Vitronectin-coated plates (Life Technology) in mTeSRplus medium ([…] Technologies). Cultures were fed every other day and passaged by manual dissociation using 0.02% EDTA pH 7.2 (Merck Sigma-Aldrich) every 4-5 days. For neuronal differentiation, hiPSC colonies were treated (DIV0) as previously described (Nicoleau et al., 2013) in N2B27 medium consisting of 50% DMEMF-12 Glutamax, 50% neurobasal medium, 2% B27 supplement 50× without vitamin A, 1% N2 supplement, 0.1% penicillin streptomycin, and 50 μM β-mercaptoethanol (Thermofisher). Neuronal differentiation was initiated by passage of hiPSCs in N2B27 medium supplemented with SB431542 (20 μM, Tocris), LDN-193189 (100 nM, Sigma Aldrich) and XAV_939 (1 μM, Tocris) and 10 μM ROCK inhibitor (Y27632, Calbiochem) on low-adhesion culture plates (Greiner) for 6 hours. The medium was changed every day from DIV0 to DIV20. At DIV1, hiPSC aggregates were transferred to laminin poly-ornitine-coated dishes without Y27632. From DIV5 to DIV9, SB431542 was removed and FGF2 (10 ng/ml) and cyclopamine 1 μM (Merck) were added. […]

Hdh^CAG140/+ mice = assay: Novelty-Suppressed Feeding test; format: in vivo, mouse; conditions: Hdh^CAG/+ mice, 0.3 mg/kg/day subcutaneous infusion
Method: Mice littermates were grouped into mixed treatment groups. Males and females were 6 months of age at the beginning of the treatment. For each specific test, all experimental groups were tested on the same day, during the light phase and between Days 16 and 28 of treatment. Prior to testing, mice were acclimatized to the test room for a period of 30 minutes. Treatments were randomly assigned and behavioral tests were performed 12 days before the end of the delivery of the treatment. […] Mice were excluded from analysis if their performance was calculated as a significant outlier by the Grubb test. One mouse was excluded based on these criteria. Mouse weights were measured prior to the start of treatment and until the end of testing.
The test was performed as in Pla et al., 2013. Animals were food-deprived during 24 hours to increase motivation to consume food. On the day of testing, mice were placed within the testing apparatus, which consisted of a plastic box (50 cm×30 cm×15 cm), the floor of which covered with wooden bedding. Mice were videorecorded and allowed to freely explore the area until they eat the food pellet or for a maximum of 10 minutes. The mice were considered to eat the pellet when they bite the pellet while sitting comfortably.

O=C(CN1CCN(C(=O)c2ccco2)CC1)Nc1cc(C(F)(F)F)ccc1Cl [ML-348]
anterograde and retrograde transport velocities of BDNF-mCherry vesicles [1]: not statistically significant | linear net flow [1]: significantly increased | number of vesicles moving in either direction (anterograde, retrograde) [1]: significantly increased | latency to feeding in a new environment (Hdh^CAG140/+ mice): restores the behavior of Hdh^CAG/+ mice to that of wild-type mice
